From PMC5374412, “Development of Pharmacophore Model for Indeno[1,2-b]indoles as Human Protein Kinase CK2 Inhibitors and Database Mining” (Pharmaceuticals, 2017) come the findings set out here.

This assay concerns the target T1, human protein kinase CK2 (holoenzyme) (Homo sapiens, UniProt P68400).
T1 construct: gene CSNK2A1; CK2 holoenzyme, recombinant, expressed in E. coli; with CK2 regulatory subunit beta (CSNK2B), as part of the holoenzyme
Nature of the assay: capillary electrophoresis-based kinase activity assay, peptide substrate RRRDDDSDDD
It is filed as biochemical.

T1 sequence (P68400 whole entry): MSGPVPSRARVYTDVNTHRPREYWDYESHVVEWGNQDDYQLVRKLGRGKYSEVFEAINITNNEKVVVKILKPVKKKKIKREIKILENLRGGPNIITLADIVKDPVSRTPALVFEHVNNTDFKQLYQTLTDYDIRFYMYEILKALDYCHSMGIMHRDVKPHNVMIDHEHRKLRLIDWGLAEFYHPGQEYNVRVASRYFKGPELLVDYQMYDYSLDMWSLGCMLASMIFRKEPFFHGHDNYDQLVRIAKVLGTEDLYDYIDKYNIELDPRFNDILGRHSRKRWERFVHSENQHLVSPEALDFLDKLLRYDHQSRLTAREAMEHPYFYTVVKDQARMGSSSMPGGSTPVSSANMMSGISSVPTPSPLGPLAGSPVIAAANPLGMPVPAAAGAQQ
T1 sequence (P67870 2-215 partner): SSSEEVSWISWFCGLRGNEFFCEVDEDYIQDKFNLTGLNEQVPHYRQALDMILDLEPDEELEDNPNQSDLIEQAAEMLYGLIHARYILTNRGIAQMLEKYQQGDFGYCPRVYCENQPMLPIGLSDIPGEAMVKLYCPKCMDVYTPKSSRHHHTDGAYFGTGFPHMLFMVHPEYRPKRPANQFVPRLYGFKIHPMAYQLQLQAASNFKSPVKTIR

A word on the IC50: it is the concentration that gives 50% inhibition. Turning to `COC1=CC(=O)c2c(c(O)c3oc4cc(OC)cc(C)c4c(=O)c3c2O)C1=O` [ZINC05765165, 6,11-dihydroxy-3,8-dimethoxy-1-methylbenzo[b]xanthene-7,10,12-trione], the IC50 was 1.24 µM.
